Results from patent US20260325473A1, “N-Beta-Hydroxybutyryl-Amino Acids and Related Compositions and Methods” (The Board of Trustees of the Leland Stanford Junior …, priority 2023, published 2026).

Assays:
DIO mice = test: Chronic administration in DIO mice: body weight and food intake; type: in vivo, mouse; conditions: for body weight, head-to-head keto amino acids: 5 days, vs vehicle
Procedure: General animal information. Animal experiments were performed according to procedure approved by the Stanford University Administrative Panel on Laboratory Animal Care (APLAC). Mice were maintained in 12-hr light-dark cycles at 22° C. and ~50% relative humidity and fed a standard irradiated rodent chow diet. Where indicated, high-fat diet (D12492, Research Diets 60% kcal from fat) and ketogenic diet (D06040601, Research Diets, 80% kcal fat/15% kcal protein/5% kcal carbohydrate) was used. Male C57BL/6J (stock no. 000664) and male C57BL/6J DIO mice (stock no. 380050) were purchased from Jackson Laboratory. Male C57BL/6NCrl (stock no. 027) mice were purchased from Charles River Laboratory. Whole body CNDP2-KO mice (catalog number, C57BL/6NCrl-Cndp2em1 (IMPC) Mbp/Mmucd, RRID: MMRRC_043492-UCD) were obtained from the Mutant Mouse Regional Resource Center, a NCRR-NIH funded strain repository. For in vivo injection of mice with metabolites, compounds were dissolved in 18:1:1 (by volume) of saline/Kolliphor EL (Sigma Aldrich)/DMSO. Compounds were administered to mice daily via intraperitoneal injections at 5 μl/g body weight at the indicated doses. For all injection experiments, mice were mock injected with the vehicle for 3-5 days until body weights have stabilized. Sample sizes were determined on the basis of previous experiments using similar methodologies. For metabolite administration experiments, mice were randomly assigned to treatment groups. Experimenters were not blinded to groups.

CNDP2 = target: T1, CNDP2 (Mus musculus, UniProt Q9D1A2); test: In situ live cell enzyme activity assay, CNDP2- or GFP-transfected HEK293T cells; type: cell-based; design: expressed in transfected cells; host or cells: HEK293T (lysate); conditions: role: product; BHB-treated; conditioned media
T1 sequence (Q9D1A2 1-475): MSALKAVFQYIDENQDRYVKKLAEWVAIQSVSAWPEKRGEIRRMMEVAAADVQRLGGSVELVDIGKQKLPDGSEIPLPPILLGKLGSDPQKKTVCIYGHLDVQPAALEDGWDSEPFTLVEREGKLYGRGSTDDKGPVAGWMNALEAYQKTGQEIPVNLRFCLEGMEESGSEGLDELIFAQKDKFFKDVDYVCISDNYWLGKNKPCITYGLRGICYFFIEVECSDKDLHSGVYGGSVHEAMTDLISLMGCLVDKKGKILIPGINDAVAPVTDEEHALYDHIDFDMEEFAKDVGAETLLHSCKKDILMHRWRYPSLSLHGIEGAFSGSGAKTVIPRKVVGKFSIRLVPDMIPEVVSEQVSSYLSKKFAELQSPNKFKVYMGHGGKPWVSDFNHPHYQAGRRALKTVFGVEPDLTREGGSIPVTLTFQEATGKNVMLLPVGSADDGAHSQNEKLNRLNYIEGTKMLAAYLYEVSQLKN
Procedure: Cellular enzyme activity assays. Cells were plated in 12-well plates at 70-80% confluence. The next day, cells were washed two times with PBS and incubated in 0.5 ml serum-free medium. After overnight incubation, 400 μl of medium was removed and 20 μl of 1 M HCl were added to acidify the medium and to protonate keto amino acids. Ethyl acetate (400 μl) was added into each sample and reactions were vortexed for 30 s to extract keto amino acids into the organic layer. Reactions were centrifuged at 4° C. for 10 min at 15,000 r.p.m. and total of 300 μl from the top layer was transferred to a new Eppendorf tube and dried down under a stream of nitrogen. The residue was re-suspended in 150 μl of an 2:1:1 mixture of acetonitrile: methanol: water. The mixture was centrifuged at 4° C. for 10 min at 15,000 r.p.m. and the supernatant was transferred to a LC-MS vial. Cells were kept on ice to collect the lysate. PBS (150 μl) was added into each well and the cells scraped into an Eppendorf tube. This step was repeated again to ensure all cells were collected. Cells were then centrifuged at 4° C. for 10 min at 2,000g and the supernatant removed to obtain the cell pellet. A volume of 150 μl of a 2:1:1 mixture of acetonitrile: methanol:water mixture was used to lyse the cells and precipitate large proteins. […]

Row | keto amino acid production in CNDP2-transfected live cells (CNDP2) | Structure (SMILES) | food intake and body weight, related metabolites and dipeptides (DIO mice; 50 mg/kg IP, 9 days) | body weight and food intake, conjugate vs components (DIO mice; 50 mg/kg/day IP, BHB or phenylalanine at the same doses, 9 days) | body weight gain, 2-week study (DIO mice; 50 mg/kg/day IP, 2 weeks) | daily food intake, 2-week study (DIO mice; 50 mg/kg/day IP, 2 weeks) | body weight gain (DIO mice; 50 mg/kg/day IP, 10-day period) | suppression of daily food intake, average (DIO mice; 50 mg/kg/day IP, 10-day period) [%] | body weight, head-to-head keto amino acids (DIO mice; 50 mg/kg/day IP) | weight loss compared with pair-fed controls (DIO mice; 50 mg/kg/day IP, 6 days)
1 | robust production | CC(O)CC(=O)N[C@@H](Cc1ccccc1)C(=O)O (some centres unmarked) [BHB-Phe, N-betahydroxybutyryl-phenylalanine] | suppressed food intake and body weight | efficiently suppressed body weight and food intake | concomitant reduction in body weight gain | durable suppression of daily food intake | concomitant reduction in body weight gain | −30 | effective in suppressing body weight | lost the same amount of weight as pair-fed controls
2 | robust production | CC(O)CC(=O)N[C@H](C(=O)O)C(C)C (some centres unmarked) [BHB-Val, N-betahydroxybutyryl-valine] | – | – | – | – | – | – | effective in suppressing body weight | –
